Reference: patent US20230255869A1, “FATTY ACID DERIVATIVE, PRODUCTION PROCESS THEREFOR, HAIR COMPOSITION AND HAIR-TREATMENT METHOD” (CHEMYUNION LTDA., priority 2020, published 2023)

Assays:
[1] = Evaluation of the cuticular region of hair fibers by scanning electron microscopy (SEM); conditions: conditioner plus 1% active; bleached and dyed fibers; 1100x
Method: The tests to evaluate the effectiveness of the shine on locks of hair were carried out with standardized fibers of straight, dark brown hair, provided by International Hair Importers— USA.
The locks were washed with anti-residue shampoo and dried naturally (24±1h).
After the pre-treatment, the locks of hair from the groups G1, G2, G3 and G4 (average weight of 2 g per lock), were subjected to the process of chemical bleaching.
To carry out the process, a bleaching mixture was prepared with 15 g of bleaching powder and 30 g of hydrogen peroxide 30 volumes. This mixture was evenly applied to the locks of hair. After application, the locks were wrapped in aluminum foil and left to rest for 45 minutes. After the time of action of the bleaching mixture, the locks were washed and rinsed abundantly with running water (2 minutes) and received the application of a standard conditioner. After 2 minutes of rest, for the conditioner to work, the locks were rinsed again. The locks were dried with hot air from the dryer.
The whole process was repeated two more times, totaling three bleachings. […]
The evaluation of the surface of the hair fibers (cuticle region) was performed using a scanning electron microscope (SEM), model 6460 LV (JEOL). The study is based on capturing images (1100× magnification) of 10 capillary fibers randomly selected from the evaluated groups. […]

[2] = Shine evaluation of hair locks treated with conditioner (SAMBA Hair System, Reich-Robbins luster)
Method: The tests for evaluating the effectiveness in the shine of locks of hair were carried out with standardized fibers of CaucasianU, brown, straight hair, supplied by International Hair Importers— USA, model most used for these types of tests (Table 1).
The locks were washed with anti-residue shampoo and dried naturally (24±1h) before treatment.
The formulations were applied according to the protocol described below: For the locks in group G1 (Control), shampoo was applied in a standardized amount of SLES solution (8.1% active) on wet hair and gently massaged for 1 minute. Then rinsed for 1 minute.
For locks in group G2 (Placebo) and with the actives: G3 (Ricinoleamide), G4 (Cyclometicone), G5 (Phenyltrimethicone), G6 (Dimethicone), G7 (Aminopropyl phenyltrimethicone) and G8 (Propylene glycol dibenzoate) and G9 (Ricinoleate mono- and diesters), shampoo was applied in a standardized amount of placebo/standard shampoo to wet hair and gently massaged for 1 minute. Then rinsed for 1 minute. After rinsing the hair, the conditioner (3.0±0.2 g) was applied to the entire length of the hair, massaging and untangling the hair. Leaving the product to act for 2 minutes and it was rinsed for 1 minute. This protocol was repeated once, and then four more times, for all groups according to their specific treatment, described in Table 1.
The locks were kept in a controlled environment at 23±2° C. and 50±5% relative humidity (R. H.), for at least 24 hours before the tests were started. The entire test period was carried out under the same environmental conditions.
The evaluation of hair shine was performed on three locks per group, using the equipment SAMBA Hair System of the company Bossa Nova Technologies, USA.
The locks of hair were positioned on a cylindrical support that slides into the interior of the equipment, in order to carry out the measurements.
The equipment successively captures two parallel images of the locks of hair. Specular image and diffuse image. The specular image is formed only by the light reflected by the hair surfaces (first and second) of reflection. This image contains the brightness information. The diffused image (diffuse) is formed only by the scattered light coming from inside the hair.
The SAMBA system program calculates parameters associated with the reflection and refraction of light, the most used parameter is Luster, which evaluates the real state and quality of the brightness of the object under study. This parameter can be calculated simultaneously through different formulas, and for this study the analysis data obtained by the Reich-Robbins formula was used.
For the statistical evaluation of the tests, analysis of variance (ANOVA) was used. Tukey's test was applied when analysis of variance detected significant differences between the groups. For comparative tests between before and after the same sample, the t-Test (Student) was used.

Row | Compound | integrity of the cuticular region (subjective SEM evaluation) vs Control and Placebo [1] | difference of shine value greater than Amino pfenyltrimethicone group ([2]; conditioner with 1% active, one treatment, vs Amino pfenyltrimethicone (1%)) | difference of shine value (after minus before one treatment) greater than Control group ([2]; conditioner with 1% active, one treatment, vs Control (SLES wash)) | difference of shine value greater than Cyclomethicone group ([2]; conditioner with 1% active, one treatment, vs Cyclomethicone (1%)) | difference of shine value greater than Dimethicone group ([2]; conditioner with 1% active, one treatment, vs Dimethicone (1%)) | difference of shine value greater than Phenyltrimethicone group ([2]; conditioner with 1% active, one treatment, vs Phenyltrimethicone (1%)) | difference of shine value greater than Placebo group ([2]; conditioner with 1% active, one treatment, vs Placebo conditioner) | difference of shine value greater than Propilene glycol dibenzoate group ([2]; conditioner with 1% active, one treatment, vs Propilene glycol dibenzoate (1%)) | difference of shine value greater than ricinoleate mono- and diesters group ([2]; conditioner with 1% active, one treatment, vs ricinoleate mono- and diesters (1%)) | efficiency in providing increased shine in the first application compared to other compounds ([2]; same concentrations, FIG. 1)
1 | CCCCCC[C@@H](O)C/C=C\CCCCCCCC(N)=O [Ricinoleamide, ricinoleamide] | greater preservation of the cuticular region | 93.4% | 78.4% | 78.4% | 52.7% | 56.7% | 84% | 95.1% | 54.0% | greater efficiency
2 | phenyltrimethicone [reference compound] | preservation of the cuticular region | – | – | – | – | – | – | – | – | –
